Where “and” joins values, the source holds several entries; their conditions need not be identical. Identical values can stand only once.
Experiments:
Assay type in all cases: in vivo, human
[1] = system: adenosine signalling signature (A2AR); experiment: Phase 1A study NCT02740985: adenosine signalling signature scores in pre-dose and on-treatment tumour biopsies
Source text: We scored transcriptome data with the signature using GSVA (60). This method is robust to outlying genes expressed at different orders of magnitude and generates scores amenable to downstream statistical interpretation. We observe a strong linear correlation between signatures representing immune processes/features and tumour purity in TCGA (see FIG. 7). To account for this bias we adjust the signature scores for tumour purity by fitting a linear regression derived from all samples in TCGA versus tumour purity and then applying the following correction:
Immune cell infiltrates were determined with an SVR approach based on CIBERSORT (36) to define relative immune cell abundance. To study the association of adenosine with CD8^+ T cell infiltration we consider CD8 high tumours to be greater than the median of CD8A expression across all samples. All other cell or cell-state signatures were scored using GSVA. NK cell exhaustion was determined using expression of KIR3DL1, KIR3DL2, IL2RA, IL15RA, HAVCR2 and EOMES. Cytotoxicity was determined using the expression of: NKG7, CST7, PRF1, GZMA, GZMB and IFNG. CD8 Exhaustion was determined using the signature provided in (Danaher et al. 2017). IFNG signalling was determined using the signature presented by (Ayers et al. 2017).
(§1) The first-in-human trial, NCT02740985, was conducted to assess safety, PK and pharmacodynamic activity of AZD4635 as monotherapy and in combination with durvalumab in patients with treatment refractory solid tumours. Pre-dose and on-treatment tumour biopsies were collected from 7 subjects who were treated with AZD4635 monotherapy at or below the maximum tolerated dose (MTD) of 100 mg PO daily.
Total RNA was extracted from tumour tissue macrodissected from […] thick FFPE sections using the miRNeasy FFPE Kit (QIAGEN). RNA integrity and quantity were assessed on the TapeStation 2200 using the RNA ScreenTape System (Agilent). […]
The RNA was subsequently analyzed for gene expression using the NanoString nCounter FLEX Analysis System and the commercially available 770-gene, human PanCancer Immune Profiling Panel (NanoString). […]

[2] = Phase 1A study NCT02740985: safety, maximum tolerated dose; settings: monotherapy, PO daily, patients with treatment refractory solid tumours
Protocol: as §1

prostate cancer = experiment: Progression-free survival of prostate cancer patients in phase 1A study of AZD4635, grouped by group I signature
Protocol: To derive signatures geared toward adenosine-drive prostate cancers, time-series of samples from 96 patients prostate cancer patients enrolled in the phase 1A study of AZD4635 (NCT02740985) were collected and analyzed for gene expression by using the NanoString nCounter FLEX Analysis System and the commercially available 770-gene, human PanCancer Immune Profiling Panel (NanoString). The time series was up to 120 weeks for some patients. Signatures were tested for their concordance with progression-free survival (PFS), where progression is objective disease progression (by PSA recurrence or RECIST 1.1 criteria), or death by any cause in the absence of progression. (A concordance index of 0.5 represents random chance; a concordance index of 1 represents perfect prediction.) The concordance index, in this context, is a measure of how successful a given signature is in predicting PFS; that is, if stratifying patients into ‘adenosine-low’ and ‘adenosine-high’ groups correlated with the adenosine-high group having a longer median PFS than the adenosine-low group (patients with tumors that are more strongly adenosine drive should benefit more from treatment with the A2AR antagonist AZD4635). The stronger that correlation, the greater the concordance index.

For `Cc1cc(-c2nnc(N)nc2-c2ccc(F)cc2)cc(Cl)n1` [AZD4635, 6-(2-chloro-6-methylpyridin-4-yl)-5-(4-fluorophenyl)-1,2,4-triazin-3-amine], which “patients with reduced adenosine scores who also had increases in gene expression signatures of cytolytic activity and IFNG signalling” value ([1]; of the 5 patients with reduced scores, out of 7 treated) is on record?
The value was 4 patients.

And the “patients with reduced adenosine signalling scores” value ([1]; solid tumours, AZD4635 monotherapy once daily at or below MTD, on-treatment vs pre-dose biopsy)?
Its value is 5 of the 7 and 5 of 7.

And the “share of patients with reduced adenosine signalling scores” value ([1]; solid tumours, AZD4635 once daily, 7 patients)?
The value was 70%.

What about the “maximum tolerated dose (MTD)” value [2] of the same compound?
Its value is 100 mg.

What about the “median PFS, adenosine-low group” value (prostate cancer; p=0.008 vs adenosine-high) of the same compound?
Its value is 12 weeks.

And the “median PFS, adenosine-high group” value (prostate cancer; p=0.008 vs adenosine-low)?
Its value is 34 weeks.

Reference: patent publication US20230332239A1, “METHODS OF TREATING CANCER” (ASTRAZENECA AB, priority 2019, published 2023)
